Assay results published in PubChem BioAssay (NCI).
Several values for one entry are separate records, joined by “and”; a condition that tells them apart may be missing. Identical values can stand only once.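 These data come from cells grown in 96-well plates and exposed to compound for 48 hours at five concentrations. Abbreviation: GI50, concentration required for 50% inhibition of growth. TGI: concentration producing complete growth inhibition.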 Where a SMILES comes first, the peptide text is derived from it. The star is where a group is joined. Boc = CC(C)(C)OC(=O)*; Bn = c1ccc(C*)cc1

Experiments:
Experiment in all cases: DTP human tumour cell line panel, 48 h
[1] = test system: HCT-15 colon
[2] = test system: UACC-62 melanoma
[3] = test system: COLO 205 colon
[4] = test system: K-562 leukemia
[5] = test system: SNB-19 CNS
[6] = test system: SW-620 colon
[7] = test system: EKVX NSCLC
[8] = test system: BT-549 breast
[9] = test system: SK-OV-3 ovarian
[10] = test system: MDA-MB-231 breast
[11] = test system: SK-MEL-2 melanoma

## O=c1[nH]c(=O)n(CCOc2ccc(Cl)cc2)cc1Nc1ccccc1
[1]
  TGI: > 100 µM
[2]
  TGI: > 100 µM
[3]
  TGI: > 100 µM
[4]
  TGI: > 100 µM
[5]
  TGI: > 100 µM
[6]
  TGI: > 100 µM
[7]
  TGI: > 100 µM

## O=S(=O)(CCC[C@H]1[C@@H](CCOCc2ccccc2)C2CCCN1O2)c1ccccc1 (stereo not given in full)
[1]
  TGI: > 100 µM
[2]
  TGI: > 100 µM
[8]
  TGI: > 100 µM
[3]
  TGI: > 100 µM
[4]
  TGI: > 100 µM
[5]
  TGI: > 100 µM
[9]
  TGI: > 100 µM
[6]
  TGI: > 100 µM
[7]
  TGI: > 100 µM
[10]
  TGI: > 100 µM

## C=CC1(c2ccc3ccccc3c2)OCC(CC)O1 (stereo not given)
[1]
  TGI: > 100 µM
[2]
  TGI: 88.3 µM
[3]
  TGI: > 100 µM
[4]
  TGI: 85.1 µM
[5]
  TGI: > 100 µM
[9]
  TGI: > 100 µM
[6]
  TGI: > 100 µM
[7]
  TGI: > 100 µM
[11]
  TGI: 43.9 µM
[10]
  TGI: 0.469 µM

## C[N+]12C=CC=C1C(N1CCCC1)c1scc(-c3ccc(F)cc3)c12 (stereo not given)
[2]
  TGI: > 100 µM
[8]
  TGI: 88 µM
[3]
  TGI: 51.3 µM
[4]
  TGI: 26.5 µM
[5]
  TGI: > 100 µM
[9]
  TGI: > 100 µM
[6]
  TGI: > 100 µM
[7]
  TGI: > 100 µM
[11]
  TGI: 49 µM
[10]
  TGI: > 100 µM

## CC(=O)NNc1nc(C)c(C(=O)/C=C/c2ccc(Cl)c(Cl)c2)s1
[1]
  TGI: > 100 µM
[2]
  TGI: > 100 µM
[3]
  TGI: > 100 µM
[4]
  TGI: > 100 µM
[5]
  TGI: > 100 µM
[9]
  TGI: > 100 µM
[6]
  TGI: > 100 µM
[7]
  TGI: > 100 µM
[11]
  TGI: > 100 µM

## COC(=O)Cn1c(=O)oc2nc(-c3ccccc3)cc(C(F)(F)F)c21
[1]
  TGI: > 100 µM
[2]
  TGI: > 100 µM
[8]
  TGI: > 100 µM
[3]
  TGI: > 100 µM
[5]
  TGI: > 100 µM
[9]
  TGI: > 100 µM
[6]
  TGI: > 100 µM
[7]
  TGI: > 100 µM
[11]
  TGI: > 100 µM
[10]
  TGI: > 100 µM

## O=[N+]([O-])/C(Cl)=C/C(=C1/Nc2ccccc2O1)[N+](=O)[O-]
[1]
  TGI: 42 µM
[2]
  TGI: 56.7 µM
[8]
  TGI: 52 µM
[3]
  TGI: 45.1 µM
[4]
  TGI: 87.1 µM
[5]
  TGI: 45.5 µM
[9]
  TGI: 75.7 µM
[6]
  TGI: 72.3 µM
[7]
  TGI: 40.5 µM
[10]
  TGI: 76.4 µM

## C/C=C\C(CC(=O)OC)CC(=O)N(CCC1CN(S(=O)(=O)C(F)(F)F)c2ccccc21)Cc1ccc(OC)cc1OC (stereo not given)
[1]
  TGI: > 100 µM
[8]
  TGI: > 100 µM
[3]
  TGI: > 100 µM
[4]
  TGI: > 100 µM
[5]
  TGI: > 100 µM
[9]
  TGI: > 100 µM
[6]
  TGI: > 100 µM
[7]
  TGI: > 100 µM
[11]
  TGI: > 100 µM
[10]
  TGI: > 100 µM

## Cc1cn(C2CCN(CC3COC(C)(C)O3)O2)c(=O)[nH]c1=O (stereo not given)
[1]
  TGI: > 100 µM
[2]
  TGI: > 100 µM
[8]
  TGI: > 100 µM
[3]
  TGI: > 100 µM
[4]
  TGI: > 100 µM
[9]
  TGI: > 100 µM
[6]
  TGI: > 100 µM
[7]
  TGI: > 100 µM
[11]
  TGI: > 100 µM
[10]
  TGI: > 100 µM

## O=c1[nH]nc(Cc2ccccc2)n1/N=C/c1ccc([N+](=O)[O-])cc1
[1]
  TGI: > 100 µM
[2]
  TGI: > 100 µM
[8]
  TGI: > 100 µM
[3]
  TGI: > 100 µM
[4]
  TGI: > 100 µM
[6]
  TGI: > 100 µM
[7]
  TGI: > 100 µM
[11]
  TGI: > 100 µM
[10]
  TGI: > 100 µM

## NC(N)=NS(=O)(=O)c1ccc(NC(=O)c2cccc3c(N)c4ccccc4nc23)cc1
[1]
  TGI: > 100 µM
[2]
  TGI: > 100 µM
[3]
  TGI: > 100 µM
[4]
  TGI: > 100 µM
[5]
  TGI: > 100 µM
[9]
  TGI: > 100 µM
[6]
  TGI: > 100 µM
[7]
  TGI: > 100 µM
[11]
  TGI: > 100 µM

## COc1cc(C2c3cc4c(cc3OC(NCCO)C2C)OCO4)cc(OC)c1O (stereo not given)
[1]
  TGI: 46.9 µM
[2]
  TGI: > 100 µM
[8]
  TGI: > 100 µM
[3]
  TGI: 84.2 µM
[5]
  TGI: > 100 µM
[6]
  TGI: > 100 µM
[11]
  TGI: 36.9 µM
[10]
  TGI: > 100 µM

## CNC(=O)C(CC(C)C)NC(=O)C(C)NC(=O)C(Cc1ccc(OCc2ccccc2)cc1)NC(=O)C(COCc1ccccc1)NC(=O)OC(C)(C)C (stereo not given) (Boc-S(Bn)Y(Bn)AL-NHMe; configuration not given here)
[1]
  TGI: > 100 µM
[2]
  TGI: > 31.6 µM
[8]
  TGI: 55.5 µM and 40.4 µM
[3]
  GI50: 17.3 µM and 2.11 µM
  TGI: 38.3 µM and 9.52 µM
[4]
  TGI: > 48 µM and 38.4 µM
[5]
  TGI: > 58 µM and 36.9 µM
[9]
  TGI: > 60.3 µM and 39.6 µM
[6]
  TGI: 31 µM and 28.7 µM
[7]
  GI50: > 100 µM and 26.4 µM
  TGI: > 100 µM and 77.9 µM
[10]
  TGI: 35.7 µM and 36 µM

## CC1=N[C@@](C)(C2CC3C=CC2C3=O)COC1=O (stereo not given in full)
[2]
  TGI: > 100 µM
[8]
  TGI: > 100 µM
[3]
  TGI: > 100 µM
[4]
  TGI: > 100 µM
[5]
  TGI: > 100 µM
[9]
  TGI: > 100 µM
[6]
  TGI: > 100 µM
[7]
  TGI: > 100 µM
[10]
  TGI: > 100 µM

## O=C1C=C(c2ccccc2)O/C1=C\C(=O)c1ccc(Cl)cc1
[1]
  TGI: 35.1 µM
[2]
  TGI: 30.4 µM
[8]
  TGI: 25.3 µM
[3]
  TGI: 30.8 µM
[4]
  TGI: 73 µM
[5]
  TGI: > 100 µM
[9]
  TGI: > 100 µM
[6]
  TGI: 10.1 µM
[7]
  TGI: > 100 µM
[10]
  TGI: 32.7 µM

## NC(CCCCNCc1ccccc1)C(=O)O (stereo not given)
[1]
  TGI: > 100 µM
[2]
  TGI: > 100 µM
[3]
  TGI: > 100 µM
[4]
  TGI: > 100 µM
[5]
  TGI: > 100 µM
[9]
  TGI: > 100 µM
[6]
  TGI: > 100 µM
[7]
  TGI: > 100 µM
[11]
  TGI: > 100 µM

## C=C(Cl)C(C)(Cl)CCC(Cl)C(C)C (stereo not given)
[2]
  TGI: > 100 µM
[8]
  TGI: > 100 µM
[3]
  TGI: > 100 µM
[4]
  TGI: > 100 µM
[5]
  TGI: > 100 µM
[9]
  TGI: > 100 µM
[6]
  TGI: > 100 µM
[7]
  TGI: > 100 µM
[11]
  TGI: > 100 µM
[10]
  TGI: > 100 µM

## CCOC(=O)C(NC(=O)CC)(Nc1ccc(F)cc1F)C(F)(F)F (stereo not given)
[1]
  TGI: > 100 µM
[8]
  TGI: > 100 µM
[3]
  TGI: > 100 µM
[4]
  TGI: > 100 µM
[5]
  TGI: > 100 µM
[9]
  TGI: > 100 µM
[6]
  TGI: > 100 µM
[7]
  TGI: > 100 µM
[11]
  TGI: > 100 µM

## Cc1nc2c3c(ccc2[nH]c1=O)C(=O)c1ccccc1C3=O
[1]
  TGI: > 100 µM
[2]
  TGI: > 100 µM
[3]
  TGI: > 100 µM
[4]
  TGI: > 100 µM
[5]
  TGI: > 100 µM
[9]
  TGI: > 100 µM
[6]
  TGI: > 100 µM
[7]
  TGI: > 100 µM

## COc1ccc(/C=C/C(=O)c2sc(-c3cccnc3)nc2C)cc1
[1]
  TGI: > 100 µM
[2]
  TGI: > 100 µM
[3]
  TGI: > 100 µM
[4]
  TGI: > 100 µM
[9]
  TGI: > 100 µM
[6]
  TGI: > 100 µM
[7]
  TGI: > 100 µM
[11]
  TGI: > 100 µM

## CCCCC1(O)CC2CC1C(C)C2(C)C (stereo not given)
[1]
  TGI: > 100 µM
[2]
  TGI: > 100 µM
[8]
  TGI: > 100 µM
[3]
  TGI: > 100 µM
[4]
  TGI: > 100 µM
[5]
  TGI: > 100 µM
[9]
  TGI: > 100 µM
[6]
  TGI: > 100 µM
[7]
  TGI: > 100 µM
[10]
  TGI: > 100 µM

## C/C(=N/O)c1sc(-c2nc(C)c(/C(C)=N\O)s2)nc1C
[1]
  TGI: > 100 µM
[2]
  TGI: > 100 µM
[3]
  TGI: > 100 µM
[4]
  TGI: > 100 µM
[5]
  TGI: > 100 µM
[9]
  TGI: > 100 µM
[6]
  TGI: > 100 µM
[7]
  TGI: > 100 µM
